According to ChEMBL document CHEMBL5465560, “Selectivity Literature for EUbOPEN Chemogenomic Library” (2024):

How the values were obtained:
[1] = biological target: Glycogen synthase kinase-3 beta (Homo sapiens, UniProt P49841); test: Selectivity interaction (KinomeScan (DiscoverX)) EUB0001079a GSK3B; settings: at 1 µM
[2] = biological target: Phosphorylase b kinase gamma catalytic chain, skeletal muscle/heart isoform (Homo sapiens) (UniProt Q16816); test: Selectivity interaction (KinomeScan (DiscoverX)) EUB0001079a PHKG1; settings: at 1 µM
Sequence of Phosphorylase b kinase gamma catalytic chain, skeletal muscle/heart isoform (Homo sapiens) (Q16816 whole entry, looked up, canonical isoform): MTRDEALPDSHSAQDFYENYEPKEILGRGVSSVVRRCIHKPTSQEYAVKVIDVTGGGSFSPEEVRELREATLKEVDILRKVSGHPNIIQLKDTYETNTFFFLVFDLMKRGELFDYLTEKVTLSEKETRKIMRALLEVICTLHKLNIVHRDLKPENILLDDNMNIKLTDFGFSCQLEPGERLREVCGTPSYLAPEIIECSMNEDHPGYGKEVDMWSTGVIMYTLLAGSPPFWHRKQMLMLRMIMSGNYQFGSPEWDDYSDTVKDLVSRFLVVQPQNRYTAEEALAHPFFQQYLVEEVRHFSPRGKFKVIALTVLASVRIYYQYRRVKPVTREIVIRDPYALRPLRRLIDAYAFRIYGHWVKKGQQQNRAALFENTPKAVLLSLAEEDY

[3] = biological target: Wee1-like protein kinase 2 (Homo sapiens) (UniProt P0C1S8); test: Selectivity interaction (KinomeScan (DiscoverX)) EUB0001079a WEE2; settings: at 1 µM
Sequence of Wee1-like protein kinase 2 (Homo sapiens) (P0C1S8 whole entry, looked up): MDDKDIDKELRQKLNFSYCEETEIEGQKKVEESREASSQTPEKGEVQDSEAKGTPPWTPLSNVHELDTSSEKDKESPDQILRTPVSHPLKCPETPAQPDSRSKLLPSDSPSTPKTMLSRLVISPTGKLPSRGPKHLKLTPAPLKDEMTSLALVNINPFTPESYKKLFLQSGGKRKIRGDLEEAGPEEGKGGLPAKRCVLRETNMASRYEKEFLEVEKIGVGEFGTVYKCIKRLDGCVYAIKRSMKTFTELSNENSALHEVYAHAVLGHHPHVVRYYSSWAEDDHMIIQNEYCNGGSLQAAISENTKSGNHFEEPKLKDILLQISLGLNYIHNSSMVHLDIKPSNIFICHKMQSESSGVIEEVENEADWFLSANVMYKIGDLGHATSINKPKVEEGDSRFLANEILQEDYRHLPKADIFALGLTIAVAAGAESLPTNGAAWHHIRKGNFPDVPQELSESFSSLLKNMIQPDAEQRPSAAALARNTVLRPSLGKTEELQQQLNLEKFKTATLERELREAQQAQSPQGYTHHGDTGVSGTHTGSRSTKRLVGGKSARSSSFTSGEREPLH

[4] = biological target: T1, cAMP-dependent protein kinase catalytic subunit PRKX (Homo sapiens) (UniProt P51817); settings: at 10 µM
T1 sequence (whole entry): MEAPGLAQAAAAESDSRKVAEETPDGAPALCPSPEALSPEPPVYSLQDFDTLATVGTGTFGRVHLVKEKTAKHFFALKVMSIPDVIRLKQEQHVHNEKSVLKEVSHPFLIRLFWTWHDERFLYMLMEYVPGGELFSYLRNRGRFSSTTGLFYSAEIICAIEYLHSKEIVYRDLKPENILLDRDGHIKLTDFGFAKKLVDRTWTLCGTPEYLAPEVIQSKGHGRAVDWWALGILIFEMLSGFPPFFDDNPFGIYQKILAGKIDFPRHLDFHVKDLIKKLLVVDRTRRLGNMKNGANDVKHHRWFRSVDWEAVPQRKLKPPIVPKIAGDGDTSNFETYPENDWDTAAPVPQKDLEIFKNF

[5] = biological target: Cyclin-dependent kinase 14 (Homo sapiens) (UniProt O94921); test: Selectivity interaction (ActivX KiNativ screen (kinase selectivity in THP-1 cell lysates)) EUB0000639a CDK14; format: subcellular; settings: lysate, at 0.01 µM
[6] = biological target: Calcium/calmodulin-dependent protein kinase type II subunit gamma (Homo sapiens) (UniProt Q13555); test: Selectivity interaction (KinomeScan (DiscoverX)) EUB0000595a CAMK2G; settings: at 10 µM
Sequence of Calcium/calmodulin-dependent protein kinase type II subunit gamma (Homo sapiens) (Q13555 whole entry, canonical isoform): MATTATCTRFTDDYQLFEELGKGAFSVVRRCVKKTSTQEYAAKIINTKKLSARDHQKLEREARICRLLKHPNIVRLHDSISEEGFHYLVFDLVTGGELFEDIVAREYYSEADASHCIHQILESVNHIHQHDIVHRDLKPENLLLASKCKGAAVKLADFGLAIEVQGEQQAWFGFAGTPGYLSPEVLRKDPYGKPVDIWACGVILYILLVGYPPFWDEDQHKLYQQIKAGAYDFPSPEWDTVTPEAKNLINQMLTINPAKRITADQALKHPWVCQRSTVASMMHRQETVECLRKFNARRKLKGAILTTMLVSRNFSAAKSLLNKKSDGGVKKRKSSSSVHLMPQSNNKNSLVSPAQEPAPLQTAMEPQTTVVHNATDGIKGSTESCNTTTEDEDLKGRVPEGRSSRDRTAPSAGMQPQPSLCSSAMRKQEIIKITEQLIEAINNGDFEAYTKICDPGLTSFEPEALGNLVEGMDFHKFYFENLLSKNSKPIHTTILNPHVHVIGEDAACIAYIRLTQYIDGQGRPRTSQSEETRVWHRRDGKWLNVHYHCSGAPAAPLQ

[7] = test system: Phosphatidylinositol 4,5-bisphosphate 3-kinase catalytic subunit alpha isoform (Homo sapiens), P42336 [M1043I]; settings: at 10 µM
[8] = biological target: Cyclin-dependent kinase 7 (Homo sapiens, UniProt P50613); test: Selectivity interaction (KinomeScan (DiscoverX)) EUB0000092b CDK7; settings: at 10 µM
Sequence of Cyclin-dependent kinase 7 (P50613 whole entry, canonical isoform): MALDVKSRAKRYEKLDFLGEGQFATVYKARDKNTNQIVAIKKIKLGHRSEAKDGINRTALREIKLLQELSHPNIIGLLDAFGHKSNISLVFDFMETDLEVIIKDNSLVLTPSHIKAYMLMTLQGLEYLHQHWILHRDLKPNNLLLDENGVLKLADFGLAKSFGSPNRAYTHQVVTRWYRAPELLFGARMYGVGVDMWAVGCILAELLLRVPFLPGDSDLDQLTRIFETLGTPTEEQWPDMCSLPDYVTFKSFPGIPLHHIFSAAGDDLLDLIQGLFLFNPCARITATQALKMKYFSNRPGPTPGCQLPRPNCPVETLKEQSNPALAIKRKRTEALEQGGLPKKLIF

[9] = biological target: Casein kinase I isoform gamma-2 (Homo sapiens) (UniProt P78368); test: Selectivity interaction (Ambit KINOMEscan and KiNATiv profiling in Jurkat cells) EUB0000090b CSNK1G2; format: cell-based; settings: at 1 µM
[10] = biological target: T2, Bone morphogenetic protein receptor type-2 (Homo sapiens) (UniProt Q13873); settings: at 10 µM
T2 sequence (whole entry): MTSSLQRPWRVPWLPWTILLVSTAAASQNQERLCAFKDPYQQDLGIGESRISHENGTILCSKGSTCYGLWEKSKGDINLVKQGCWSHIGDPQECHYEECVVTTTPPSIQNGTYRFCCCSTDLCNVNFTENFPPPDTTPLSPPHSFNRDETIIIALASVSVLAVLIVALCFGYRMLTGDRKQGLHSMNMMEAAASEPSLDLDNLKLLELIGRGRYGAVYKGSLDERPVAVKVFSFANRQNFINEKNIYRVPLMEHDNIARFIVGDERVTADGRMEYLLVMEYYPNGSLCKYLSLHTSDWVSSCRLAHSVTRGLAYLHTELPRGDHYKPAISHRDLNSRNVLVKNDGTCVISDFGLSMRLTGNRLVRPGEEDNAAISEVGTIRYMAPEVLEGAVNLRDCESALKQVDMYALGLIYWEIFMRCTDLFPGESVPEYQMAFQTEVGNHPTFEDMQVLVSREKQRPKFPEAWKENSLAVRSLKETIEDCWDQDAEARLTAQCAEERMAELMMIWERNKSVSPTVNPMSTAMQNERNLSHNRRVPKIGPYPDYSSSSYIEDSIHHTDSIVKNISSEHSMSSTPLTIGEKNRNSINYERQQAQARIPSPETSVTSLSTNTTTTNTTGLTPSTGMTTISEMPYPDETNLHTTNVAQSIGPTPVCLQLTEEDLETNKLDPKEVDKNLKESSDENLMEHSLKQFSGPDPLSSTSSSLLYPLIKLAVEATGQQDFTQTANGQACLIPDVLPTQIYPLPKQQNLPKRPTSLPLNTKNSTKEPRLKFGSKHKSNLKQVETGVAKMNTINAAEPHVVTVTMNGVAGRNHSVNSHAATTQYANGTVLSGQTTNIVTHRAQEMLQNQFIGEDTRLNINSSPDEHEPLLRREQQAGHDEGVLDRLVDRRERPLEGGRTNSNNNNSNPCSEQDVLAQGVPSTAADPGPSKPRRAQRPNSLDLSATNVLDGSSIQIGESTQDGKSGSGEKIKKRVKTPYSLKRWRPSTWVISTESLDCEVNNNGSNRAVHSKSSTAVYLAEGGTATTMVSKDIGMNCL

[11] = biological target: Serine/threonine-protein kinase 16 (Homo sapiens, UniProt O75716); settings: at 10 µM
Sequence of Serine/threonine-protein kinase 16 (O75716 whole entry): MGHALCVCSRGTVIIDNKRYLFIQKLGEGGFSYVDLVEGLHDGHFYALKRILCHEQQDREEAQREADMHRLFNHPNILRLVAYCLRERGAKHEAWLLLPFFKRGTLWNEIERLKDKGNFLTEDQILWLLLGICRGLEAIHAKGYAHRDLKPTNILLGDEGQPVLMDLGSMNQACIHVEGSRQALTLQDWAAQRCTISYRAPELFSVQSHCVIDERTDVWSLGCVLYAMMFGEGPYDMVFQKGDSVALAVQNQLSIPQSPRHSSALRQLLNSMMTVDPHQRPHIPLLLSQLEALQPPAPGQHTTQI

Activated CDC42 kinase 1 = Activated CDC42 kinase 1 (Homo sapiens, UniProt Q07912)
Sequence of Activated CDC42 kinase 1 (Q07912 whole entry): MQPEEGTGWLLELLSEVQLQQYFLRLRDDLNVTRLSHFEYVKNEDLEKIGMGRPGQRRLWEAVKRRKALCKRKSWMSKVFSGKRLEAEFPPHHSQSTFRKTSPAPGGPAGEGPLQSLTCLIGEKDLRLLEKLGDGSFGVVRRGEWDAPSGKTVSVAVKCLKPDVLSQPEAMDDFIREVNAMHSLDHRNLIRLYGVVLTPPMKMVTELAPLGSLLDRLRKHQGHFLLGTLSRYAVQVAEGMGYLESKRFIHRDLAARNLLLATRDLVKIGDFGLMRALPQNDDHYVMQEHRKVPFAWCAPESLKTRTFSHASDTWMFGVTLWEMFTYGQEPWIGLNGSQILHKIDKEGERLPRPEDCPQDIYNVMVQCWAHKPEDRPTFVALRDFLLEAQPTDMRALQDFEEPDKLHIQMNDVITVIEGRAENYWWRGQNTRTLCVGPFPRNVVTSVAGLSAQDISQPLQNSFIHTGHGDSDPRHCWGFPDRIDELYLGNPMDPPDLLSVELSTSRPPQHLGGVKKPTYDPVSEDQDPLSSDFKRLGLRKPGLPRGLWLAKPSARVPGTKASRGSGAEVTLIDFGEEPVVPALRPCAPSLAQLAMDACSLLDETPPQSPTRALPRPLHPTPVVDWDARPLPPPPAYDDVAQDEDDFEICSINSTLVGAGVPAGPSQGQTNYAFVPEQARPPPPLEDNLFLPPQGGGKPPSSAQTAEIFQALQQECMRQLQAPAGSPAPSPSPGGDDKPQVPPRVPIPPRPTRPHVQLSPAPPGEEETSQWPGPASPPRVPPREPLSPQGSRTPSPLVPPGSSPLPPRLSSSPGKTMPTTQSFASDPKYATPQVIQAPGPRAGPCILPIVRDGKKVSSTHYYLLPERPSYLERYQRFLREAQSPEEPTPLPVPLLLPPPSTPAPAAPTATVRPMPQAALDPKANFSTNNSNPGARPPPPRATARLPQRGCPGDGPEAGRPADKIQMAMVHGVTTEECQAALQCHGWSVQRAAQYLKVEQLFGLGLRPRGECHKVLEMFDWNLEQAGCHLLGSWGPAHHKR

[12] = biological target: Calcium/calmodulin-dependent protein kinase type II subunit delta (Homo sapiens) (UniProt Q13557); test: Selectivity interaction (KinomeScan (DiscoverX)) EUB0001619a CAMK2D; settings: at 1 µM
[13] = biological target: T3, Serine/threonine-protein kinase Chk1 (Homo sapiens) (UniProt O14757); test: Selectivity interaction (KinomeScan (DiscoverX)) EUB0000607a CHEK1; settings: at 10 µM
T3 sequence (whole entry): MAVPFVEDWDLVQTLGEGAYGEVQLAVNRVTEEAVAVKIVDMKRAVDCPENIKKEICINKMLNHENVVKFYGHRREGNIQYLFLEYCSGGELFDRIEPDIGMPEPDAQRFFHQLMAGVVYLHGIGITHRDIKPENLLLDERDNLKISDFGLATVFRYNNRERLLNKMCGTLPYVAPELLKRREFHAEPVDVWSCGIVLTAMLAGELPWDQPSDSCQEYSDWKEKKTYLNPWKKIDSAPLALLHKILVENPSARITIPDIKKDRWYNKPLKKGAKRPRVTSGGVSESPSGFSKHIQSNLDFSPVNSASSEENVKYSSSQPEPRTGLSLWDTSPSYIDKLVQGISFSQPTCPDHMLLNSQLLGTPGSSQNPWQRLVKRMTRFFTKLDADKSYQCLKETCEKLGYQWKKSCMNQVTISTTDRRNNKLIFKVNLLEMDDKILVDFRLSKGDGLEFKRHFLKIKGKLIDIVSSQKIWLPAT

[14] = biological target: Ribosomal protein S6 kinase alpha-4 (Homo sapiens) (UniProt O75676); test: Selectivity interaction (KinomeScan (DiscoverX)) EUB0000607a RPS6KA4; settings: at 10 µM
Sequence of Ribosomal protein S6 kinase alpha-4 (Homo sapiens) (O75676 whole entry, looked up): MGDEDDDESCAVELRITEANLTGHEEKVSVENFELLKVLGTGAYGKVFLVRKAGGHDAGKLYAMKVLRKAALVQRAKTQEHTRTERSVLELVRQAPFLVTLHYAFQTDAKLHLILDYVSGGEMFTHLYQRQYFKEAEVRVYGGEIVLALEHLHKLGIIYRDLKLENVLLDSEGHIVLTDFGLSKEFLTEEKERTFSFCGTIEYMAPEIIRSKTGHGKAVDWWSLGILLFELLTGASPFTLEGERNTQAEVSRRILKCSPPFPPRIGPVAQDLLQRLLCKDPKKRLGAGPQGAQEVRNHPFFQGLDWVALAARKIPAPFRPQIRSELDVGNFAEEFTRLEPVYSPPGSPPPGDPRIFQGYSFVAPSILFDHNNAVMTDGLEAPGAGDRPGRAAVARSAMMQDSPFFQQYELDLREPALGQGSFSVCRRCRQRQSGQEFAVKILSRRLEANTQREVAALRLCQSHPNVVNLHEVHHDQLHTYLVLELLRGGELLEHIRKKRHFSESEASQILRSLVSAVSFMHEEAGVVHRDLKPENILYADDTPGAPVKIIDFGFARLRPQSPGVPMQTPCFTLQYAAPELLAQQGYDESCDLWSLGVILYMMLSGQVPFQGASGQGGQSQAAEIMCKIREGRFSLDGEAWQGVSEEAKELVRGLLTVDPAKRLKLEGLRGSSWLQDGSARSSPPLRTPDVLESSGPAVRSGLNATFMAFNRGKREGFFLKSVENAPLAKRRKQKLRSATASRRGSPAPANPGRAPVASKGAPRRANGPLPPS

[15] = biological target: Sodium-dependent dopamine transporter (Homo sapiens, UniProt Q01959); test: Selectivity interaction (Panel of non-epigenetic targets (kinases, GPCRs, ion channels, and transporters, Eurofins) ) EUB0000271b SLC6A3; settings: at 1 µM
Sequence of Sodium-dependent dopamine transporter (Q01959 whole entry): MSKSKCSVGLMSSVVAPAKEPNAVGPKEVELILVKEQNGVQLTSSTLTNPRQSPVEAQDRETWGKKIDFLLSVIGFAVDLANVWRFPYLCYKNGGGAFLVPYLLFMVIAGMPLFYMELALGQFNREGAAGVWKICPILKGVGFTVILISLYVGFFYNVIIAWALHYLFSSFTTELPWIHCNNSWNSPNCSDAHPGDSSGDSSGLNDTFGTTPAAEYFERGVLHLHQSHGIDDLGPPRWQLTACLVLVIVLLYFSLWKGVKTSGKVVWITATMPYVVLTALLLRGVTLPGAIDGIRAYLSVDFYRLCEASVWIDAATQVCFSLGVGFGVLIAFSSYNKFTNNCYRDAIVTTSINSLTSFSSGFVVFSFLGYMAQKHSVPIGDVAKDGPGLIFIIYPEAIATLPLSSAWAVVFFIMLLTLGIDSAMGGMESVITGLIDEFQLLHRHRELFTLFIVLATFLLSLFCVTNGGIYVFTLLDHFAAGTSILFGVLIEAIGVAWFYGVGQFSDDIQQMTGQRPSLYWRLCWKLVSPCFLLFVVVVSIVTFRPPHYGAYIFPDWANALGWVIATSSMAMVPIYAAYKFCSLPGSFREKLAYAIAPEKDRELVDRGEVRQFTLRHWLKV

Sequence of Glycogen synthase kinase-3 beta (P49841 whole entry, looked up, canonical isoform): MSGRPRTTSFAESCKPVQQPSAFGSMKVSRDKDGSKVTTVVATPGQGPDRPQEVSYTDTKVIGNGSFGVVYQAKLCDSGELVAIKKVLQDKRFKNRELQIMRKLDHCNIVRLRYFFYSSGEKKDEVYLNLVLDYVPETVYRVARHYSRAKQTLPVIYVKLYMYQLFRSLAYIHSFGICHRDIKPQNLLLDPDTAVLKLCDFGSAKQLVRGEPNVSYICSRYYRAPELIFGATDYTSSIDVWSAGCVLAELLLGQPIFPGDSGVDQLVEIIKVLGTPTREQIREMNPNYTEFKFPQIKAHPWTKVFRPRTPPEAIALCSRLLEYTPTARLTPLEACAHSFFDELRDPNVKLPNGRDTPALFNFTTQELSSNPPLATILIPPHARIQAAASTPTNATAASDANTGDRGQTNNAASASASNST

Nc1cnc(N2CCc3cc(S(=O)(=O)Nc4c(F)cc(Cl)cc4F)cc(N4CCCC4=O)c32)nc1 [TP-020n]
% of control [1]: 100%
% of control [2]: 71%
% of control [3]: 93%

CCN(CC)CCCCNc1ncc2cc(-c3cc(OC)cc(OC)c3)c(NC(=O)NC(C)(C)C)nc2n1
% of control [4]: 100%

CC[C@@H]1[C@H](F)C(=O)N[C@@H]1COc1nccc2cc(C(N)=O)c(OC)cc12 [ZIMLOVISERTIB]
% of inhibition [5]: -16.8%

COCC(=O)NC/C=C/c1ccc2ncnc(Nc3ccc(Oc4ccc(C)nc4)c(C)c3)c2c1 [CP-724714]
% of control [6]: 94%
% of control [7]: 100%

CCC(=O)N1CCN(c2ccc(-n3c(=O)ccc4cnc5ccc(-c6cnc7ccccc7c6)cc5c43)cc2C(F)(F)F)CC1
% of control [8]: 57%

CN(C)C/C=C/C(=O)Nc1ccc(C(=O)N2CCCC(Nc3ncc(Cl)c(-c4c[nH]c5ccccc45)n3)C2)cc1 (stereo unspecified)
% of control [9]: 98%

Cc1cc([C@@H](C)Nc2ccccc2C(=O)O)c2nc(N3CCOCC3)cc(=O)n2c1 [AZD-6482]
% of control [10]: 69%
% of control [11]: 77%

CCc1cccc(CC)c1NC(=O)c1nn(C)c2c1CCc1cnc(Nc3ccc(C(=O)NC4CCN(C)CC4)cc3OC(F)(F)F)nc1-2
IC50 (Activated CDC42 kinase 1): > 10 µM

N#Cc1cccc(-c2c[nH]c3ncnc(N4CCOCC4)c23)c1
% of control [12]: 80%

CNC(=O)Nc1ccc(-c2nc(N3CC4CCC(C3)O4)c3cnn(C4CCC5(CC4)OCCO5)c3n2)cc1
% of control [13]: 100%
% of control [14]: 90%

Cc1cc(C)cc([C@@H]2c3cc(C)ccc3NC(=O)CN2C(=O)c2ccc(Br)s2)c1
% of inhibition [15]: 6%
